Data from patent US20130052214A1, “IDENTIFICATION OF A PEPTIDE(S) THAT INDUCES AUTOIMMUNE ANTERIOR UVEITIS” (BOARD OF TRUSTEES OF THE UNIVERSITY OF ARKANSAS, priority 2011, published 2013).

System: Lewis rats
Experiment: Induction of experimental autoimmune anterior uveitis (EAAU) by hind footpad immunization with MAA-derived peptides in CFA
Assay type: in vivo, rat
Settings: for severity of EAAU, clinical and histopathologic examination: 250 μg peptide in CFA compared with 75 μg bovine MAA in CFA, histology at day 17 and day 20 post-immunization; for induction of EAAU: single-dose hind footpad immunization, emulsified 1:1 in CFA, 250 μg peptide or 75 μg bovine MAA, examined daily day 7 to 30 post-immunization
Method: Peptides having the sequence of SEQ ID NO. 1 and SEQ ID NO. 2 were solubilized in sterile phosphate buffered saline (PBS) before use. Lewis rats were immunized separately with 100 μl of stable emulsion containing 250 μg of peptide SEQ ID NO. 1 (n=9 rats) or peptide SEQ ID NO. 2 (n=9 rats) emulsified (1:1) in complete Freund's adjuvant (CFA) using a single-dose induction protocol in the hind footpad to induce EAAU. Control animals (n=9 rats) received 75 μg of bovine melanin associated antigen (MAA) emulsified (1:1) in CFA. Animals in each group were examined daily between day 7 and 30, post-immunization, to determine the time of onset and progression of clinical disease in EAAU. Two animals from each group were sacrificed at day 17 and day 20 post-immunization and eyes were harvested for histological analysis to determine the severity of disease and degree of inflammation. Lewis rats injected with MAA peptide SEQ ID NO. 1 or MAA peptide SEQ ID NO. […] 1 (FIGS. 1A and 1D) and peptide SEQ ID NO. […] As shown in all of the Figs., the iris (I) and the ciliary body (CB) were infiltrated with inflammatory cells.

Sequence	severity of EAAU, clinical and histopathologic examination	induction of EAAU
GEPGNIGFPGPKGPSGDPGKAGEKG (listed as Bos taurus) [SEQ ID NO. 1, truncated peptide derived from Melanin Associated Antigen (MAA)]	less severe than that induced by bovine MAA	developed EAAU
HAGLAGARGAPGPDGNNGAQGPPGL (listed as Bos taurus) [SEQ ID NO. 2, truncated peptide derived from Melanin Associated Antigen (MAA)]	less severe than that induced by bovine MAA	developed EAAU
